# According to PMC4552634, “A New Set of Chemical Starting Points with Plasmodium falciparum Transmission-Blocking Potential for Antimalarial Drug Discovery” (PLoS ONE, 2015):
# Where two headings read alike, the source gives them in different places.
# Columns and labels:
# [1] = tested on: P. falciparum stage V gametocytes; experiment: Gametocytocidal ATP bioluminescence assay (single point 5 μM and 1 μM, dose-response); type: cell-based, Plasmodium falciparum; conditions: for Ratio IC50 HepG2/IC50 P. falciparum: IC50 HepG2 divided by IC50 P. falciparum gametocytes
# [2] = tested on: luciferase reaction (BacTiter-Glo); experiment: Interference assay (inhibition of the BacTiter-Glo luciferase reaction); type: biochemical; set-up: concentration or dose not given beside the values; conditions: ATP interference assay
# Protocol: To discard possible false-positive results, we performed an interference assay in parallel. […] […]. The ATP solution was made by dissolving ATP powder (ATP standard from the ATPlite 1 step assay kit, reference 6016731, Perkin Elmer) in culture medium. The positive control used was the Luciferase Inhibitor I Calbiochem (Merck, 119113) at 100 μM.
# HepG2 cells = experiment: Cytotoxicity in HepG2 cells (intracellular ATP, ATPlite, 48 h); type: cell-based, human; conditions: HepG2 cells; IC50 per ratio column head; unit inferred
# [3] = tested on: P. falciparum asexual stages; conditions: asexual stages; TCAMS data; read-out: IC50 asexual; cited from earlier work
# [4] = P. falciparum gametocytes, average, read-out: IC50 Pf Gametocytes average, IC50 (µM) average
# [5] = sexual stages (gametocytes), dose-response, read-out: IC50 sexual
SMILES,% Control luminiscence [2] [%],Ratio IC50 HepG2/IC50 P. falciparum [1],"IC50 [1, 4] [µM]",IC50 (HepG2 cells) [nM],IC50 [3] [nM],"IC50 [1, 5] [µM]"
c1ccc(CSC2=NNC(c3ccccn3)S2)cc1 (centres unmarked) [TCMDC-123769],100,>3,7.98,> 25000,1480,7.98
N=c1n(Cc2ccc(Cl)cc2)c2ccccc2n1CC(O)c1ccc(Cl)c(Cl)c1 (centres unmarked) [TCMDC-123813],99,18,0.36,6500,677,0.357
N=c1n(CCN2CCCCC2)c2ccccc2n1CC(O)c1ccc(Cl)c(Cl)c1 (centres unmarked) [TCMDC-124064],100,1.59,3.27,5200,320,3.27
COc1ccc(OC)c(-c2cccc(-c3cccc(NC(=O)c4ccc([N+](=O)[O-])o4)c3)n2)c1 [TCMDC-124799],100,8,0.78,6150,371,
COc1ccccc1-c1cccc(-c2cccc(NC(=O)c3ccc([N+](=O)[O-])o3)c2)n1 [TCMDC-124800],100,7,1.66,11500,603,1.66
O=C(Nc1cccc(-c2cccc(-c3ccc(F)cc3)n2)c1)c1ccc([N+](=O)[O-])o1 [TCMDC-124807],100,4.55,1.53,6940,361,1.53
CCc1[nH]nc(C(=O)NC2CCN(CC3(c4ccc(OC)cc4)CCCCC3)CC2)c1C [TCMDC-124840],100,,> 10,> 25000,892,
CS(=O)(=O)c1cccc2sc(N3CCN(C(=O)c4ccc([N+](=O)[O-])o4)CC3)nc12 [TCMDC-124930],100,<1.9,> 10,18800,1240,
Cc1nn(CC(C)C)c2sc(C(=O)N3CCN(S(=O)(=O)c4ccc(C#N)cc4)CC3)cc12 [TCMDC-125045],92,>12,2.09,> 25000,739,2.09
Cc1ccccc1OCC(O)CNC1CCC(NCC(O)COc2ccccc2C)CC1 (centres unmarked) [TCMDC-125142],99,26,0.14,3780,1190,0.144

# Further lines, with some results ahead:
% Control luminiscence [2] [%],SMILES,Ratio IC50 HepG2/IC50 P. falciparum [1],"IC50 [1, 4] [µM]",IC50 (HepG2 cells) [nM],IC50 [3] [nM],"IC50 [1, 5] [µM]"
100,CCN(CC)CCCn1c(N)c(-c2nc3ccccc3[nH]2)c2nc(C#N)c(C#N)nc21 [TCMDC-123680],62,0.14,8700,267,
100,CN(C)CCCn1c(N)c(-c2nc3ccccc3[nH]2)c2nc(C#N)c(C#N)nc21 [TCMDC-123729],35,0.2,6930,591,
100,COc1ccc(C[C@H](N)C(=O)N[C@H]2[C@@H](O)[C@H](n3cnc4c(N(C)C)ncnc43)O[C@@H]2CO)cc1 [TCMDC-123927],4,0.65,2690,299,0.647
99,Cc1ccc(-n2nc(-c3ccccc3)c3cc(C(=O)NCCN)sc32)cc1 [TCMDC-124776],7,1.11,7830,1360,
